The subject of data set [1] is human HT29 colorectal tumor cell xenografts. In words: Growth inhibition study in nude mice transplanted with human HT29 colorectal tumor cell xenografts. Format: in vivo. The procedure:
Growth inhibition studies were performed using nude mice transplanted with human HT29 colorectal tumor cell xenografts and 1) not treated (control group), or treated 2) with oral UFT (20 mg/kg/day) and calcium folinate (4 mg/kg/day) for 28 days; 3) intraperitonealy with oxaliplatin (10 mg/kg at day 1), or 4) with a combination of oxaliplatin with UFT and calcium folinate. Tumor measurements were performed twice a week, and animals were sacrificed at day 28. The tumors were excised and weighed. Two separate experiments were performed, for a total number of 25 animals in each group.
Human colorectal cancer HT29 cells, obtained from Dr. J. Fogh (Sloan Kettering Institute for Cancer Research, N.Y.), were cultured in DMEM (Dulbeccos modified Eagle's medium, Eurobio, Paris, France), supplemented with 10% heat-decomplemented fetal bovine serum (Boehringer, Manheim, Germany), 100 U/ml penicillin, 100 μg/ml streptomycin and […] glutamine. Cells were grown at 37° C. in a humidified atmosphere containing 5% CO2. The medium was renewed every 2 days, and the cells were passaged twice a week by trypsin/EDTA to maintain the cells in exponential growth.
Female BALB/c nude (nu+/nu+) aged 6 weeks were maintained in pathogen free state. Human HT29 colorectal xenograft (1×10^6 cells) was transplanted sub-cutaneously into the hind limb of each animal. Treatment was initiated 14 days later when the tumor became easily palpable and measurable (mean size of tumor surface=33 mm^2).
Oxaliplatin was administered intraperitoneally at a dose of 10 mg/kg day 1. […]
Two axes (mm) of tumor (the longest axis and the axis perpendicular to the longest axis) were measured with a caliper. Tumor measurements and body weights were recorded twice a week. […] Toxicity was evaluated in terms of body weight ratio (Wn/Wo) and mortality; Wn is the body weight measured n days after the initial administration, while Wo is the body weight at the start of administration. […] Results are expressed as mean weight (grams)±standard deviation. […]

Data set [2] in a line: Toxicity (body weight ratio, mortality) in HT29 xenograft nude mice. Format: in vivo. The settings on record: day 28 before sacrifice; 25 animals per group.
Protocol: Tumor measurements and body weights were recorded twice a week. […] For each experiment, the same observer made all measurements to minimize variations. Toxicity was evaluated in terms of body weight ratio (Wn/Wo) and mortality; Wn is the body weight measured n days after the initial administration, while Wo is the body weight at the start of administration. […] Two consecutive experiments gave similar data, and results represent the average of all data for a total of 25 animals per group. The means of each of the four groups were compared using the one-way analysis of variance. The Barlett's test was used for homogeneity of variances and the Tukey-Kramer multiple comparison test for inter-group comparison. Data analysis was performed using an IBM PC. Statistical analysis and graphs were performed using Instat and Prism software (GraphPad, San Diego, Calif.).
Body weight was evaluated in terms of the ratio of body weight measured n days after treatment (Wn) as compared to the body weight at the start of treatment (Wo). All animals (25 per group) were weighed twice a week.

“And” between values parts separate entries of the source, which are not always exact repeats. Identical values can stand only once.

For `O=C1[O][Pt]2([NH][C@@H]3CCCC[C@H]3[NH]2)[O]C1=O` [oxaliplatin, [(1R, 2R)-1,2-cyclohexanediamine-N,N′][oxalato(2-)-O, O′]platinum], the “Decrease of tumor size (tumor growth inhibition) as compared to control” value in data set [1] (day 28, FIG. 1) is listed as 24%. For the same molecule, the “Tumor weight decrease as compared to control” value in data set [1] (day 28, same doses) was 29.9% and 30%. Also, the Mean tumor weight in data set [1] (tumors excised 28 days after treatment initiation, 25 animals per group, UFT 20 mg/kg/day + calcium folinate 4 mg/kg/day oral day 1-28, oxaliplatin 10 mg/kg i.p. day 1) was 2.03 ± 0.14 g. Also, the “Body Weight Ratio (Wn/Wo)” value in data set [2] was 1.05 ± 0.09.
